Reference: article PMC4165196, “Curcumin, a Natural Antioxidant, Acts as a Noncompetitive Inhibitor of Human RNase L in Presence of Its Cofactor 2-5A In Vitro” (BioMed Research International, 2014)

Target: T1, human RNase L (Homo sapiens, UniProt Q05823)
T1 construct: gene RNASEL; full-length (741 a.a.) recombinant human RNase L, GST-RNase L fusion protein
T1 sequence (Q05823 1-741): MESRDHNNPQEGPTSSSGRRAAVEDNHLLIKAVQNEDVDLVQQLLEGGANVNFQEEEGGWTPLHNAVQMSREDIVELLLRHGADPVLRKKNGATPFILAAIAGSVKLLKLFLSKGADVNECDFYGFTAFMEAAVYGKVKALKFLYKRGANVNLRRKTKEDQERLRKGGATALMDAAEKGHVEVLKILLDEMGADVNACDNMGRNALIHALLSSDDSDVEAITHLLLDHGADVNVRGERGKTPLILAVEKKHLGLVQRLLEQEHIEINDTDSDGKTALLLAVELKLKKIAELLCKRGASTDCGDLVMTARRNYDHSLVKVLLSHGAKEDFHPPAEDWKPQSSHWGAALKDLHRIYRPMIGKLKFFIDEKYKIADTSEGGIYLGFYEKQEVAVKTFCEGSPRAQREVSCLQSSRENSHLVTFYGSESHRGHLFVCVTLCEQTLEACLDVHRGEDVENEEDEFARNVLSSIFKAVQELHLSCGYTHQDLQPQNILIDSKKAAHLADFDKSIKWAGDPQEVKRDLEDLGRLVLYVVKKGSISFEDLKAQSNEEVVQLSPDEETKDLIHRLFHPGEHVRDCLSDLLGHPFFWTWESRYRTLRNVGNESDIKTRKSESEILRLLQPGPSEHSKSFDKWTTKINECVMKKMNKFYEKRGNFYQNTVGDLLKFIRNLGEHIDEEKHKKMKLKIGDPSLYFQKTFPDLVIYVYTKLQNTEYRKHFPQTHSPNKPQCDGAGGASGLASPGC
Assay: intrinsic fluorescence quenching titration (Hill fit); also noncompetitive inhibition of purified GST-RNase L RNA degradation with […]-5A, Ki […], biphasic dose response
Assay type: binding

- Kd: 397 ± 18 nM
Structure (SMILES): COc1cc(/C=C/C(=O)CC(=O)/C=C/c2ccc(O)c(OC)c2)ccc1O [curcumin, 1,7-bis-[4 hydroxy-3-methoxy]-1,6 heptadiene-3,5-dione]
